The record followed here is US8987312B2, “Alpha-keto heterocycles as FAAH inhibitors” (The Scripps Research Institute, priority 2008, dated 2015).

What all share (assay type): biochemical
The target in test [1] is T1, purified recombinant rat FAAH (Rattus norvegicus, UniProt P97612).
T1 construct: The truncated rat FAAH (rFAAH) was expressed in E. coli and purified as described; made in house; host or cells: Escherichia coli
T1 sequence (P97612 30-579 limits assumed): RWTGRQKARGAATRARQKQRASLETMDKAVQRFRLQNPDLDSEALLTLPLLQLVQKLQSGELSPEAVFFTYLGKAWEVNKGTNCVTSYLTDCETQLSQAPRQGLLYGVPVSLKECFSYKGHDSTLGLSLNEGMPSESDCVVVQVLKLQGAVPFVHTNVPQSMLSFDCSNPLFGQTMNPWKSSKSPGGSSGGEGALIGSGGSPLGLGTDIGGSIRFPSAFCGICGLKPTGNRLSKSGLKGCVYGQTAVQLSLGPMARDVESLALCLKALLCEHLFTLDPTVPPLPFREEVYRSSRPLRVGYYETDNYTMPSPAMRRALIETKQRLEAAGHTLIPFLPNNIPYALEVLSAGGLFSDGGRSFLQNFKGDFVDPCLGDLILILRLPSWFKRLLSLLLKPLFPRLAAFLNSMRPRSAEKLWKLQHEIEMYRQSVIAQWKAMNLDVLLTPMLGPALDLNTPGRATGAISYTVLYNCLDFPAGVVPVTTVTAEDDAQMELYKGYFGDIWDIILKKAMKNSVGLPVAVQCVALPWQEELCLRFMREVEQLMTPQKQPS
In words: FAAH inhibition enzyme assay (14C-oleamide hydrolysis, Dixon plot), rat enzyme. From the text:
The purified recombinant rFAAH was used in the inhibition assays unless otherwise indicated.
The ^14C-labeled oleamide (substrate) and oleic acid (product) were extracted with EtOAc and analyzed by TLC.

The target in the next test is T2, FAAH (Mus musculus, UniProt O08914).
T2 construct: with FP-Rh in brain and heart membrane proteome; from tissue; host or cells: brain and heart membrane proteome
T2 sequence (O08914 1-579): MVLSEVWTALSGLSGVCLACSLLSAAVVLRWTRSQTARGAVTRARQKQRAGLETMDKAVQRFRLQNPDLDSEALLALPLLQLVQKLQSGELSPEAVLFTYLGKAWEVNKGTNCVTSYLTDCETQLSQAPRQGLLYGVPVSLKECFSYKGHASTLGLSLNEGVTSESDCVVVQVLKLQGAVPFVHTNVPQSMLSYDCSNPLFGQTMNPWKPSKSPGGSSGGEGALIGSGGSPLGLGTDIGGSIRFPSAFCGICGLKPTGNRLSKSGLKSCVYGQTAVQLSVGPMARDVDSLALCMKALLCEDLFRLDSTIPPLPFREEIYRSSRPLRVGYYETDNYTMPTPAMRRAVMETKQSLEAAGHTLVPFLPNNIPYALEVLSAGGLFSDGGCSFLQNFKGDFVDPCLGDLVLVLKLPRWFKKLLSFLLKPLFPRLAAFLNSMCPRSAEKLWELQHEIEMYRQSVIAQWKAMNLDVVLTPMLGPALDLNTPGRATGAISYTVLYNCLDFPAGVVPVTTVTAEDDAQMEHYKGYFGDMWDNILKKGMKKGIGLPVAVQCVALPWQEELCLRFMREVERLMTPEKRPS
The experiment in a line: Activity based protein profiling (proteome-wide selectivity screening, FP-Rh), FAAH. The note with it: Table 4. From the text:
(§1) Enzyme targets such as FAAH, KIAA1363, and TGH are labeled at the left margin.

The target of another test is T3, KIAA1363 (Mus musculus, UniProt Q8BLF1).
T3 construct: with FP-Rh in brain and heart membrane proteome; from tissue; host or cells: brain and heart membrane proteome
T3 sequence (Q8BLF1 1-408): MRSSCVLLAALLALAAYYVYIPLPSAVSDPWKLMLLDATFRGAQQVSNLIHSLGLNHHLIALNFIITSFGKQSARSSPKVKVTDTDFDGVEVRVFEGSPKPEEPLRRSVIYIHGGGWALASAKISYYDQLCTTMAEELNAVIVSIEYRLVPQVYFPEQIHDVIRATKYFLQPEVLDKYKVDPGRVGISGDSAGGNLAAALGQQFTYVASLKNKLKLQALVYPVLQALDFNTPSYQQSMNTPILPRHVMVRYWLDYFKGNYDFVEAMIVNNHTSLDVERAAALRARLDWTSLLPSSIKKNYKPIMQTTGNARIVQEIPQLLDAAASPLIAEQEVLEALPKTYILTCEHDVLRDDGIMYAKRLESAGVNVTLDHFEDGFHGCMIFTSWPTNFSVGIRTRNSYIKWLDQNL
In words: Activity based protein profiling (proteome-wide selectivity screening, FP-Rh), KIAA1363. The note with it: Table 4; for IC50: activity based protein profiling; for KIAA1363 selectivity (value in parentheses): ratio KIAA1363 IC50 / FAAH IC50 (fold selectivity for FAAH).
Excerpt: as §1

The target of test [2] is T4, triacylglycerol hydrolase (TGH) (Mus musculus, UniProt Q8VCT4).
T4 construct: with FP-Rh in brain and heart membrane proteome; from tissue; host or cells: brain and heart membrane proteome
T4 sequence (Q8VCT4 19-565): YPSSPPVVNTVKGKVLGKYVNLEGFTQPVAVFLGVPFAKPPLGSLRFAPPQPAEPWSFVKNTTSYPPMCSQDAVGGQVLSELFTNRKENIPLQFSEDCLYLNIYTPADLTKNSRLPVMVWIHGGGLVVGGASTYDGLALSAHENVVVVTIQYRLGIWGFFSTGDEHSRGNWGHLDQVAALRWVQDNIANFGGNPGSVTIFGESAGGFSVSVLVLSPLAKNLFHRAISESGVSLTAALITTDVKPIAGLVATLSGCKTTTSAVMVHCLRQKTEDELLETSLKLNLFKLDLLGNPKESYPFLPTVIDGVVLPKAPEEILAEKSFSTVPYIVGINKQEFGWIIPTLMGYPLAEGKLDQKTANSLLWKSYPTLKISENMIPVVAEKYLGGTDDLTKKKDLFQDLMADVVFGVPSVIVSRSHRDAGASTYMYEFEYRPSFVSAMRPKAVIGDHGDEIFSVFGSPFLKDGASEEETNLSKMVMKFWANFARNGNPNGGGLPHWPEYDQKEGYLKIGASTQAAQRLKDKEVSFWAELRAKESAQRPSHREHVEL
In words: Activity based protein profiling (proteome-wide selectivity screening, FP-Rh), TGH. The note with it: Table 4; for IC50: activity based protein profiling; for TGH selectivity (value in parentheses): ratio TGH IC50 / FAAH IC50 (fold selectivity for FAAH).
Excerpt: as §1

Setting [3] is: Table 2, rat FAAH, pH 9 assay conditions, read-out: Ki.

Read-outs that look alike come from different tables or passages of the source.

`O=C(CCCCCCc1ccccc1)c1ncno1` [9a, 1-(1,2,4-Oxadiazol-5-yl)-7-phenylheptan-1-one]: the Ki stood at 1 nM in test [1] (setting [3]) and 1 nM in test [1] (Table 4, read-out: FAAH Ki). Moreover, the IC50 on FAAH came out at 4 nM; at KIAA1363, 25000 nM; in test [2] it was 0.7 nM. Further, the “KIAA1363 selectivity (value in parentheses)” value (“KIAA1363 selectivity” for short) at KIAA1363 came to 6250. Moreover, in test [2], the “TGH selectivity (value in parentheses)” value was determined as 0.18.
In the case of `COC(=O)c1cccc(-c2noc(C(=O)CCCCCCc3ccccc3)n2)n1` [9f, Methyl 6-(5-(7-Phenylheptanoyl)-1,2,4-oxadiazol-3-yl)-picolinate], the inhibition constant (Ki) turned out to be 3 nM in test [1] (setting [3]) and 3 nM in test [1] (Table 4, read-out: FAAH Ki). Further, the IC50 on FAAH amounted to 3 nM; at KIAA1363, 40000 nM; in test [2], 150 nM. In addition, the “KIAA1363 selectivity” value on KIAA1363 was found to be 13000. Further, the “TGH selectivity (value in parentheses)” value in test [2] is listed as 50.
As to `O=C(CCCCCCc1ccccc1)c1cccnn1` [13a, 7-Phenyl-1-(pyridazin-3-yl)-heptan-1-one], the Ki was found to be 140 nM in test [1] (setting [3]) and 140 nM in test [1] (Table 4, read-out: FAAH Ki). The figures for the IC50 (against FAAH; on KIAA1363; in test [2]) were 3000 nM, greater than 100000 nM and 5000 nM, respectively. The “KIAA1363 selectivity” value on KIAA1363 is greater than 30. Further, the “TGH selectivity (value in parentheses)” value in test [2] was determined as 1.
As to `O=C(CCCCCCc1ccccc1)c1nncs1` [12a, 7-Phenyl-1-(1,3,4-thiadiazol-2-yl)-heptan-1-one], the Ki came to 1.4 nM in test [1] (setting [3]) and 1.4 nM in test [1] (Table 4, read-out: FAAH Ki). Further, the IC50 was 300 nM against FAAH, greater than 100000 nM against KIAA1363 and 100 nM in test [2]. Moreover, the “KIAA1363 selectivity” value at KIAA1363 is reported as greater than 330.
Consider `N#Cc1cccc(-c2ccc(C(=O)CCCCCCc3ccccc3)nn2)n1` [13h, 6-(6-(7-Phenylheptanoyl)-pyridazin-3-yl)-picolinonitrile], for which, in test [1] (Table 4, read-out: FAAH Ki), the Ki turned out to be 390 nM. On FAAH, this molecule yielded an IC50 of 13000 nM. Also, on KIAA1363, the IC50 was greater than 100000 nM and the “KIAA1363 selectivity” value is reported as greater than 8. In test [2], the IC50 is 12000 nM and the “TGH selectivity (value in parentheses)” value is listed as 1.
Consider `O=C(CCCCCCc1ccccc1)c1ncon1` [10a, 1-(1,2,4-Oxadiazol-3-yl)-7-phenylheptan-1-one], for which the Ki in test [1] (setting [3]) is 7 nM; in test [1] (Table 4, read-out: FAAH Ki) it was 7 nM. For the same molecule, the IC50 at FAAH is 500 nM; at KIAA1363, greater than 100000 nM; in test [2], 10 nM. The “KIAA1363 selectivity” value at KIAA1363 is recorded as greater than 200. The “TGH selectivity (value in parentheses)” value in test [2] came to 0.02.
Regarding `COC(=O)c1cccc(-c2cnc(C(=O)CCCCCCc3ccccc3)o2)n1` [7f], the IC50 was 170 nM at FAAH, 40000 nM against KIAA1363 and 1000 nM in test [2].
As to `COC(=O)c1cccc(-c2cnc(C(=O)CCCCCCc3ccccc3)s2)n1` [11f, Methyl 6-(2-(7-Phenylheptanoyl)-thiazol-5-yl)-picolinate], the Ki in test [1] (setting [3]) amounted to 500 nM; in test [1] (Table 4, read-out: FAAH Ki), 500 nM. Further, the concentration for half-maximal inhibition (IC50) is greater than 100000 nM against FAAH, greater than 100000 nM on KIAA1363 and 40000 nM in test [2]. In addition, the “TGH selectivity (value in parentheses)” value in test [2] is reported as less than 0.4.
As for `O=C(CCCCCCc1ccccc1)c1ncc(-c2cccs2)o1` [7d], the Ki in test [1] (setting [3]) stood at 55 nM; in test [1] (Table 4, read-out: FAAH Ki), 55 nM. The IC50 is 800 nM on FAAH, greater than 100000 nM against KIAA1363 and 200 nM in test [2]. The “KIAA1363 selectivity” value on KIAA1363 is on record as greater than 125. Further, in test [2], the “TGH selectivity (value in parentheses)” value is given as 0.25.
As to `O=C(CCCCCCc1ccccc1)c1ncc(-c2ccccc2)o1` [7e], the IC50 on FAAH is 900 nM; on KIAA1363, greater than 100000 nM; in test [2], 700 nM.
On to `O=C(CCCCCCc1ccccc1)c1nccs1` [11a, 7-Phenyl-1-(thiazol-2-yl)-heptan-1-one], for which the Ki is 800 nM in test [1] (setting [3]) and 800 nM in test [1] (Table 4, read-out: FAAH Ki). Moreover, the half-inhibitory concentration (IC50) at FAAH and against KIAA1363 was greater than 100000 nM in each case.
